Like-named read-outs stand apart in the source and are kept apart here.
Tests used:
rat kidney [1] = settings: cited from earlier work; for Protective effect against D-serine nephrotoxicity: compound injected prior to D-serine (Kaltenbach et al 1982); for Effect on nephrotoxic effects of orally administered DL-serine: DL-serine 100 mg oral, test compound subcutaneous or intramuscular, rats (Wachstein)
rat kidney [2] = settings: cited from earlier work
rat kidney [3] = settings: rats (Dickey et al 2007), cited from earlier work
[4] = oral NAC vs. hydration alone; cited from earlier work
Sprague Dawley rats [5] = test: Creatanine levels in rats during oral D-serine treatment with or without glutathione precursors; assay type: in vivo
Method: (§1) Rats were divided into 5 separate groups of four male and four female animals each.
(§2) In addition, a control group received only standard diet. […] Effects of various doses were investigated in a sequential manner starting with 50 mg/kg. Dose level was doubled every three days up to four doses (50 mg, 100 mg, 200 mg & 400 mg).
(§3) Nephrotoxicity was assessed in two ways: first, by creatanine levels and second by histophathology at necropsy.

Sprague Dawley rats [6] = test: Histopathological examination of kidney at necropsy (tubular nephrosis grade); assay type: in vivo; settings: histopathology at necropsy; oral gavage up to 400 mg/kg
Method: as §1, §2, §3

CC(N)(CO)C(=O)O (racemic) [DL-alpha-methylserine]
Protective effect against D-serine nephrotoxicity (rat kidney [1]): significant protective effects

CC(C)(N)C(=O)O [alpha-aminoisobutryic acid]
Protective effect against D-serine nephrotoxicity (rat kidney [1]): significant protective effects

NC(CO)C(=O)O (racemic) [DL-serine]
Renal injury induced (rat kidney [2]; 100 mg DL-serine, rats, stock diet or diet deficient in B vitamins): acute renal necrosis

N=C(N)NCCC[C@H](N)C(=O)O [L-arginine]
Effect on nephrotoxic effects of orally administered DL-serine (rat kidney [1]): relatively ineffective

CC(N)C(=O)O (racemic) [DL-alpha-alanine]
Effect on nephrotoxic effects of orally administered DL-serine (rat kidney [1]): relatively ineffective

C[C@H](O)[C@@H](N)C(=O)O [D-threonine]
Protective effect against D-serine nephrotoxicity (rat kidney [1]): significant protective effects

N[C@H](CCO)C(=O)O [D-homoserine]
Protective effect against D-serine nephrotoxicity (rat kidney [1]): significant protective effects

CC(C)C(O)C(N)C(=O)O (racemic) [beta-hydroxy-DL-leucine]
Protective effect against D-serine nephrotoxicity (rat kidney [1]): significant protective effects

C[C@@H](O)[C@H](N)C(=O)O (racemic) [DL-threonine]
Effect on nephrotoxic effects of orally administered DL-serine (rat kidney [1]): partial or full prevention of toxicity

CCCC(=O)O [butyric acid]
Effect on nephrotoxic effects of orally administered DL-serine (rat kidney [1]): relatively ineffective

NCC(=O)O [glycine]
Effect on nephrotoxic effects of orally administered DL-serine (rat kidney [1]): partial or full prevention of toxicity

CC(=O)[O-].[Na+] [sodium acetate]
Effect on nephrotoxic effects of orally administered DL-serine (rat kidney [1]): relatively ineffective

O=C([O-])CS.[Na+] [sodium thioglycollate]
Effect on nephrotoxic effects of orally administered DL-serine (rat kidney [1]): relatively ineffective

CC(=O)N[C@@H](CS)C(=O)O [NAC, N-acetylcysteine]
Effect against cisplatin-induced experimental nephrotoxicity (rat kidney [3]; intravenous NAC): effective
Effect against cisplatin-induced experimental nephrotoxicity (rat kidney [3]; oral NAC): not found beneficial effects
Blockade of nephrotoxicity due to intravenous contrast [4]: not found benefit over hydration alone

CSCCC(N)C(=O)O (racemic) [DL-methionine]
Effect on nephrotoxic effects of orally administered DL-serine (rat kidney [1]): blocked

[Cl-].[Na+] [sodium chloride]
Effect on nephrotoxic effects of orally administered DL-serine (rat kidney [1]): relatively ineffective

O=C[C@H](O)[C@@H](O)[C@H](O)[C@H](O)CO [D-glucose]
Effect on nephrotoxic effects of orally administered DL-serine (rat kidney [1]): relatively ineffective

N[C@H](CO)C(=O)O [Group A, D-serine]
Nephrotoxicity in rats lacking DAAO (rat kidney [2]; rats lacking DAAO (Maekawa et al 2005)): not nephrotoxic
Smallest dose consistently producing renal lesions (rat kidney [2]; rats): 5 mg per 100 g
Increase in creatanine levels during treatment (Sprague Dawley rats [5]; post vs. pre, in words): significant increase
Creatanine level, Change mean (Sprague Dawley rats [5]; post- minus pre-treatment): 0.12
Creatanine level, Post-treatment mean (Sprague Dawley rats [5]; post-treatment, oral gavage, doses escalated 50, 100, 200, 400 mg/kg): 0.77
Creatanine level, Pre-treatment Mean (Sprague Dawley rats [5]; pre-treatment (baseline), rats, oral gavage): 0.65
Nephrosis level (mean severity grade of tubular nephrosis) (Sprague Dawley rats [6]): 1.91

O=C([O-])c1ccccc1.[Na+] [sodium benzoate]
Prevention of D-serine toxicity (rat kidney [1]; intraperitoneal, large doses (Williams and Lock 2005)): toxicity can be prevented

N[C@@H](Cc1c[nH]cn1)C(=O)O [L-histidine]
Effect on nephrotoxic effects of orally administered DL-serine (rat kidney [1]): relatively ineffective

OCC(S)CS (stereo not shown) [2,3 dithiopropanol]
Effect on nephrotoxic effects of orally administered DL-serine (rat kidney [1]): relatively ineffective

N[C@@H](CCC(=O)N[C@@H](CS)C(=O)NCC(=O)O)C(=O)O [glutathione]
Effect on nephrotoxic effects of orally administered DL-serine (rat kidney [1]): blocked
Prevention of D-serine toxicity (rat kidney [1]; intrarenal injection, equimolar with D-serine (Krug et al 2007)): toxicity can be prevented

C[C@@H](N)C(=O)O [D-alanine]
Protective effect against D-serine nephrotoxicity (rat kidney [1]): significant protective effects

CC(C)C(N)C(=O)O (racemic) [DL-valine]
Effect on nephrotoxic effects of orally administered DL-serine (rat kidney [1]): relatively ineffective

CC(O)C(=O)[O-].[Na+] (stereo not shown) [sodium lactate]
Effect on nephrotoxic effects of orally administered DL-serine (rat kidney [1]): partial or full prevention of toxicity
